Results: US9247759B2, “Identification of human T2R receptors that respond to bitter compounds that elicit the bitter taste in compositions, and the use thereof in assays to identify compounds that inhibit (block) bitter taste in compositions and use thereof” (SENOMYX, INC., priority 2007, dated 2016)
Read-outs that look alike come from different tables or passages of the source.

Legend:
hT2R14 [1] = target: T1, hT2R14 (Homo sapiens (Human), UniProt Q9NYV8); test: hT2R14 antagonist high-throughput FLIPR assay, stable cell line with G16g44, agonist aristolochic acid; format: cell-based; conditions: read-out: IC50 on hT2R14 bitter receptor
T1 sequence (Q9NYV8 whole entry): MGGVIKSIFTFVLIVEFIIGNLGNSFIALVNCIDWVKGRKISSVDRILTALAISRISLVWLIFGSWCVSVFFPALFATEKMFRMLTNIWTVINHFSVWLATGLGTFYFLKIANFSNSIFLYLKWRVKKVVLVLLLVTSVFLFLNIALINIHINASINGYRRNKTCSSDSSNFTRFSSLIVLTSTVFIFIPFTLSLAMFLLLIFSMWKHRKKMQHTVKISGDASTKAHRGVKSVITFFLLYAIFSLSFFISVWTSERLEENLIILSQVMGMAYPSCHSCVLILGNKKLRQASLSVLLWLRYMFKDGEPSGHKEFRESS
How it was run: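 Compounds were co-applied with 3 μM aristolochic acid, a dose set to reach 70-80% of maximal hT2R14 activation. Read-out was FLIPR fluorescence in a stable HEK293 line co-expressing hT2R14 and G16g44.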

hT2R16 = hT2R16 (Homo sapiens (Human), UniProt Q9NYV7); test: hT2R panel inhibition, transient HEK293 G16g44, agonist Salicin 1 mM; format: cell-based; conditions: HEK293, compound at 25 μM
Chain of hT2R16 (Q9NYV7 whole entry): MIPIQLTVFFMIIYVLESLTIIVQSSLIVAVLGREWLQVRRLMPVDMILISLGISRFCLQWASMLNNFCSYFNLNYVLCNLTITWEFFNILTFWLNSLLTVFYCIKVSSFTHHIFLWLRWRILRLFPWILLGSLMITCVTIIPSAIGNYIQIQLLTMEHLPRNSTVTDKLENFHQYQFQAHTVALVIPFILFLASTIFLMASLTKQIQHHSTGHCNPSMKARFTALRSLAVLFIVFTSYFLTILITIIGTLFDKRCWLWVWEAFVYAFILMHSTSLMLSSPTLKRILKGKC
How it was run: (§1)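 Selectivity screen across 22 hT2Rs, each transfected singly into a G16g44-stable HEK293 background. Agonist dosed at EC80. Inhibition = reduced receptor response in presence of test compound.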

hT2R3 = hT2R3 (Homo sapiens (Human), UniProt Q9NYW6); test: hT2R panel inhibition, transient HEK293 G16g44, agonist Chloroquine pH6.5 50 μM; format: cell-based; conditions: HEK293, compound at 25 μM
Chain of hT2R3 (Q9NYW6 whole entry): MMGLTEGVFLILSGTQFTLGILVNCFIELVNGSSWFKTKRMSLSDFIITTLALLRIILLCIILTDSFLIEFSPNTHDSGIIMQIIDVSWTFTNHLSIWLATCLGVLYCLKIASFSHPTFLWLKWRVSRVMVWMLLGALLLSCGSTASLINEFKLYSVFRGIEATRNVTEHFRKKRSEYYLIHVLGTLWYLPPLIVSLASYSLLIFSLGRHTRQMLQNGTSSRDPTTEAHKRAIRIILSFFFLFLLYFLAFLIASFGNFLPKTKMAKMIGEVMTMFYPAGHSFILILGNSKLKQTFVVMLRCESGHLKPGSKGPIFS
How it was run: as §1

hT2R63 = test: hT2R panel inhibition, transient HEK293 G16g44, agonist Caffeine 1 mM or Andrographolide 100 μM; format: cell-based, human; conditions: compound at 25 μM; for screening result against bitter receptor 63: receptor activated to EC80 with the corresponding agonist
How it was run: as §1

hT2R44 = test: hT2R panel inhibition, transient HEK293 G16g44, agonist Denatonium 0.5 μM; format: cell-based, human; conditions: compound at 25 μM; for screening result against bitter receptor 44: receptor activated to EC80 with the corresponding agonist
How it was run: as §1

hT2R61 = hT2R61 (Homo sapiens (Human), UniProt P59537); test: hT2R panel inhibition, transient HEK293 G16g44, agonist Aristolochic Acid 25 nM; format: cell-based; conditions: HEK293, compound at 25 μM
Chain of hT2R61 (P59537 whole entry): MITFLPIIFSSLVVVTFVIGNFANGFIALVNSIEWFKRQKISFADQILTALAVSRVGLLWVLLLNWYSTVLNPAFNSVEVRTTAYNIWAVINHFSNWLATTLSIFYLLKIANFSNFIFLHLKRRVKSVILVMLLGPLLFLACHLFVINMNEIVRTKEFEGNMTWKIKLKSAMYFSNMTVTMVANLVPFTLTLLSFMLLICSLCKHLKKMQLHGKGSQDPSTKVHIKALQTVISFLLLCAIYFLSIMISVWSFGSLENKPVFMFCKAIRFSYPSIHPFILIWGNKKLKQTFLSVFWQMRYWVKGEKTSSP
How it was run: as §1

hT2R71 = hT2R71 (Homo sapiens (Human), UniProt P59536); test: hT2R panel inhibition, transient HEK293 G16g44, agonist Picric Acid 10 μM; format: cell-based; conditions: HEK293, compound at 25 μM
Chain of hT2R71 (P59536 whole entry): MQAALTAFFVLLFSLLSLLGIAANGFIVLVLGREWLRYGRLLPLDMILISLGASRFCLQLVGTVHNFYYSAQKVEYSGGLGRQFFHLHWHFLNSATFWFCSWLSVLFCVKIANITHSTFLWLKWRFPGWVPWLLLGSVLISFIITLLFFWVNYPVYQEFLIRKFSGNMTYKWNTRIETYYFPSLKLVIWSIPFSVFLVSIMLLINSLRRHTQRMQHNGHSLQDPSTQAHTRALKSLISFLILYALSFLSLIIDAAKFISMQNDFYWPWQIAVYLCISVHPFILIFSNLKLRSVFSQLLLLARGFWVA
How it was run: as §1

hT2R75 = hT2R75 (Homo sapiens (Human), UniProt P59540); test: hT2R panel inhibition, transient HEK293 G16g44, agonist Strychnine 1 μM; format: cell-based
Chain of hT2R75 (P59540 whole entry): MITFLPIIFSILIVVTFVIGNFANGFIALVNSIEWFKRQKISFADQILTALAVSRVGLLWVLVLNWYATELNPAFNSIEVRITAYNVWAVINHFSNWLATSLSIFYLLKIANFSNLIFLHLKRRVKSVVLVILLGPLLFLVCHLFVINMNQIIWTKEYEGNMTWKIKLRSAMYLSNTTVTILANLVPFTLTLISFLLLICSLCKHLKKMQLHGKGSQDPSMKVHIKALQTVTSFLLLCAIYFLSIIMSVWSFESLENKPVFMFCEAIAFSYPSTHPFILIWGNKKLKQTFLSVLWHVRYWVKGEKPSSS
Description: (§2) Specifically, in order to evaluate the inhibitory selectivity of the Compound C compound, this compound was tested against 22 human T2Rs which were deorphaned by Senomyx. These receptors and the bitter ligands that activate these human T2Rs are reported in earlier patent applications which are incorporated by reference herein. These 22 human T2Rs are hT2R1, 3, 4, 5, 7, 8, 9, 10, 13, 14, 16, 44, 51, 54, 55, 61, 63, 64, 65, 67, 71 and 75. The amino acid and nucleic acid sequences of all of these T2Rs may be found in these earlier patent applications. These human T2Rs were each individually transiently transfected into HEK293 cells that stably express the promiscuous G protein G16g44 and functional assays were effected using these receptors as disclosed in these same patent applications. […] The ligands were used at EC80 concentration levels. The list of bitter ligands utilized and the tested ligand concentrations are contained in Table 5 of this example.
(§3) Relating to the foregoing, FIG. 5 contains experimental results wherein Compound C was tested with different agonist compounds. The inhibition activity is represented by the reduction of receptor activity in the presence of Compound C. […] These 13 hT2Rs are hT2R3, 7, 10, 14, 16, 44, 51, 55, 61, 63, 64, 65, and 71.

hT2R14 [2] = target: T1, hT2R14; test: hT2R panel inhibition, transient HEK293 G16g44, agonist Aristolochic Acid 2 μM; format: cell-based; conditions: HEK293, compound at 25 μM
How it was run: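 Agonist challenge was at EC80, with 0.5 mM andrographolide on hT2R8 and 2 μM aristolochic acid on hT2R14. Inhibition was measured in functional assays in HEK293 cells that stably carry the promiscuous G protein G16g44 and were transiently transfected with the individual receptor.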

hT2R64 = hT2R64 (Homo sapiens (Human), UniProt P59538); test: hT2R panel inhibition, transient HEK293 G16g44, agonist Aristolochic Acid 1 μM; format: cell-based; conditions: HEK293, compound at 25 μM
Chain of hT2R64 (P59538 whole entry): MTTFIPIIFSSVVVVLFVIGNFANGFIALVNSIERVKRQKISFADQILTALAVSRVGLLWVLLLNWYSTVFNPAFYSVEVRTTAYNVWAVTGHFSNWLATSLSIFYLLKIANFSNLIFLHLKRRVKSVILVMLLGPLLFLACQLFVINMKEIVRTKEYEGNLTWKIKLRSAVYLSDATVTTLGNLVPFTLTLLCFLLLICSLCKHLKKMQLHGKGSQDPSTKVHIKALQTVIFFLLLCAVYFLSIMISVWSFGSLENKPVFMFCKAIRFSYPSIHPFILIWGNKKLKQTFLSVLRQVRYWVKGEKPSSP
How it was run: as §1

hT2R65 = test: hT2R panel inhibition, transient HEK293 G16g44, agonist Oleuropein 1 mM; format: cell-based, human; conditions: compound at 25 μM; for screening result against bitter receptor 65: receptor activated to EC80 with the corresponding agonist
How it was run: as §1

hT2R55 = test: hT2R panel inhibition, transient HEK293 G16g44, agonist Cinchonine 150 μM; format: cell-based, human; conditions: compound at 25 μM; for screening result against bitter receptor 55: receptor activated to EC80 with the corresponding agonist
How it was run: as §1

hT2R5 = hT2R5 (Homo sapiens (Human), UniProt Q9NYW4); test: hT2R panel inhibition, transient HEK293 G16g44, agonist Picoline 10 mM; format: cell-based; conditions: HEK293, compound at 25 μM; receptor activated to EC80 with the corresponding agonist; read-out: screening result against bitter receptor 5
Chain of hT2R5 (Q9NYW4 whole entry): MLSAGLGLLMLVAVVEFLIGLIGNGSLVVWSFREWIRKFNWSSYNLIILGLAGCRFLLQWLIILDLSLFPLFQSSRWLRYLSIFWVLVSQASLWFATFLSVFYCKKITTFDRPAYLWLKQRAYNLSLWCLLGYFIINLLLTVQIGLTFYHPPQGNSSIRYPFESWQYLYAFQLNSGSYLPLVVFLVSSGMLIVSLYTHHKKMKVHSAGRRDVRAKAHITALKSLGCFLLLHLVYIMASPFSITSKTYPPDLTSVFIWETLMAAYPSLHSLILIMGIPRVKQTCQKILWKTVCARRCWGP
How it was run: as §1

hT2R51 = hT2R51 (Homo sapiens (Human), UniProt P59533); test: hT2R panel inhibition, transient HEK293 G16g44, agonist Prop 2.5 μM; format: cell-based; conditions: HEK293, compound at 25 μM; receptor activated to EC80 with the corresponding agonist; read-out: screening result against bitter receptor 51
Chain of hT2R51 (P59533 whole entry): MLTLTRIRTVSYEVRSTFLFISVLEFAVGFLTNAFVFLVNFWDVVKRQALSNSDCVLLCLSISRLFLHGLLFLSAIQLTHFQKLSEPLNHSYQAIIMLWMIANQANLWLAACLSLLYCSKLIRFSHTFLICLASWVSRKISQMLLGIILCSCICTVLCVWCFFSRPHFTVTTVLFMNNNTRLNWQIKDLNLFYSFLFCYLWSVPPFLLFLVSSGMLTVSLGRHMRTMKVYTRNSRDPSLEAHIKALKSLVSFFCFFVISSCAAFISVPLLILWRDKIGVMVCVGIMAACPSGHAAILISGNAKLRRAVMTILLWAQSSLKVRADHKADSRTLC
Description: as §2, §3

hT2R67 = test: hT2R panel inhibition, transient HEK293 G16g44, agonist Andrographolide 5 μM; format: cell-based, human; conditions: compound at 25 μM; receptor activated to EC80 with the corresponding agonist
How it was run: as §1

hT2R54 = test: hT2R panel inhibition, transient HEK293 G16g44, agonist Ranitidine 5 mM; format: cell-based, human; conditions: compound at 25 μM; receptor activated to EC80 with the corresponding agonist
Description: as §2, §3

hT2R10 = hT2R10 (Homo sapiens (Human), UniProt Q9NYW0); test: hT2R panel inhibition, transient HEK293 G16g44, agonist Strychnine 50 μM; format: cell-based
Chain of hT2R10 (Q9NYW0 whole entry): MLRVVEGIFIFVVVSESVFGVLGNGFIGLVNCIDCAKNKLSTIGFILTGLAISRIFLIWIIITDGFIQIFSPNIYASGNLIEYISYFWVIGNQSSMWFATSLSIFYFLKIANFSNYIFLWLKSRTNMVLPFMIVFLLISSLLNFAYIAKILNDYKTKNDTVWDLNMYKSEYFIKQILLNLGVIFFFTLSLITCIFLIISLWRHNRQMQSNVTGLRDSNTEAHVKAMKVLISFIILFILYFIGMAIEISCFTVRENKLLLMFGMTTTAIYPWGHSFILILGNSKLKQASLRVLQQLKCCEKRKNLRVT
Description: as §2, §3

hT2R7 = hT2R7 (Homo sapiens (Human), UniProt Q9NYW3); test: hT2R panel inhibition, transient HEK293 G16g44, agonist Chloroquine pH6.5 10 mM; format: cell-based; conditions: HEK293, compound at 25 μM; receptor activated to EC80 with the corresponding agonist; read-out: screening result against bitter receptor 7
Chain of hT2R7 (Q9NYW3 whole entry): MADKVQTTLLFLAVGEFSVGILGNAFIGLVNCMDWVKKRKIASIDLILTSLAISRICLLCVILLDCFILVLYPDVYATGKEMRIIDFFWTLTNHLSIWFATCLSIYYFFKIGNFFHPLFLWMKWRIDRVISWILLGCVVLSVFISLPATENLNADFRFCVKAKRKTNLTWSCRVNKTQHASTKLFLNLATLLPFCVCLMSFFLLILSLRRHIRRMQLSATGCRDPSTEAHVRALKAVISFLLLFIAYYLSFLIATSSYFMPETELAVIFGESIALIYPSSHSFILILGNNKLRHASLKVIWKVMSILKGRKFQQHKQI
How it was run: as §1

[3] = receptor activated to EC80 with the corresponding agonist, read-out: screening result against bitter receptor 16
[4] = receptor activated to EC80 with the corresponding agonist, read-out: screening result against bitter receptor 3
[5] = receptor activated to EC80 with the corresponding agonist, read-out: screening result against bitter receptor 61
[6] = receptor activated to EC80 with the corresponding agonist, read-out: screening result against bitter receptor 71
[7] = HEK293, read-out: screening result against bitter receptor 75, compound at 25 μM, receptor activated to EC80 with the corresponding agonist
[8] = receptor activated to EC80 with the corresponding agonist, read-out: screening result against bitter receptor 14
[9] = receptor activated to EC80 with the corresponding agonist, read-out: screening result against bitter receptor 64
[10] = HEK293, read-out: screening result against bitter receptor 10, compound at 25 μM, receptor activated to EC80 with the corresponding agonist
[11] = receptor activated to EC80 with agonist

Compound | inhibition at 25 µM (hT2R16; [3]) | inhibition at 25 µM (hT2R3; [4]) | screening result against bitter receptor 63 (hT2R63) | screening result against bitter receptor 44 (hT2R44) | inhibition at 25 µM (hT2R61; [5]) | inhibition at 25 µM (hT2R71; [6]) | inhibition at 25 µM (hT2R75; [7]) | inhibition at 25 µM (hT2R14 [2]; [8]) | inhibition at 25 µM (hT2R64; [9]) | screening result against bitter receptor 65 (hT2R65) | screening result against bitter receptor 55 (hT2R55) | inhibition at 25 µM (hT2R5) | inhibition at 25 µM (hT2R51) | screening result against bitter receptor 67 (hT2R67) | inhibition at 25 µM (hT2R10; [10]) | further results
COc1ccccc1CN(Cc1ccc(C(=O)O)cc1)S(=O)(=O)c1ccc(O)cc1 [Example 5-42, 4-((4-hydroxy-N-(2-methoxybenzyl)phenylsulfonamido)methyl)-benzoic acid] | 20 to 40% | 20 to 40% | ++ (40% to 60% inhibition = ++) | ++ (40% to 60% inhibition = ++) | > 80% | 40 to 60% | 20 to 40% | > 80% | 40 to 60% | – | – | – | – | – | – | IC50 (hT2R14 [1]): 2.56 µM
COc1ccc(CN(Cc2ccccc2)S(=O)(=O)c2ccc(CCC(=O)O)cc2)cc1 [Example 5-59, 3-(4-(N-benzyl-N-(4-methoxybenzyl)sulfamoyl)phenyl)propanoic acid] | – | – | + (20% to 40% inhibition = +) | – | 40 to 60% | – | 20 to 40% | – | – | – | – | – | – | – | – | –
COc1cccc(CN(Cc2ccccc2)S(=O)(=O)c2ccc(C(=O)O)cc2)c1 [Example 5-74, 4-(N-benzyl-N-(3-methoxybenzyl)sulfamoyl)benzoic acid] | 20 to 40% | 20 to 40% | ++++ (80% or greater inhibition = ++++) | + (20% to 40% inhibition = +) | > 80% | 60 to 80% | – | > 80% | 20 to 40% | ++ (40% to 60% inhibition = ++) | +++ (60% to 80% inhibition = +++) | 20 to 40% | 40 to 60% | + (20% to 40% inhibition = +) | 40 to 60% | screening result against bitter receptor 54 (hT2R54): ++ (40% to 60% inhibition = ++); inhibition at 25 µM (hT2R7): 20 to 40%
N#Cc1cccc(CN(Cc2ccccc2)S(=O)(=O)c2ccc(C(=O)O)cc2)c1 [Example 5-75, 4-(N-benzyl-N-(3-cyanobenzyl)sulfamoyl)benzoic acid] | – | – | + (20% to 40% inhibition = +) | – | 20 to 40% | – | 20 to 40% | – | – | – | – | 20 to 40% | 20 to 40% | – | – | –
O=C(O)c1ccc(S(=O)(=O)N(Cc2ccccc2)Cc2cccc(F)c2)cc1 [Example 5-79, 4-(N-benzyl-N-(3-fluorobenzyl)sulfamoyl)benzoic acid] | 20 to 40% | 40 to 60% | ++++ (80% or greater inhibition = ++++) | ++ (40% to 60% inhibition = ++) | > 80% | 60 to 80% | – | > 80% | 60 to 80% | ++ (40% to 60% inhibition = ++) | +++ (60% to 80% inhibition = +++) | 20 to 40% | > 80% | + (20% to 40% inhibition = +) | 20 to 40% | screening result against bitter receptor 54 (hT2R54): + (20% to 40% inhibition = +)
COc1ccc(CCN(Cc2ccccc2)S(=O)(=O)c2ccc(C(=O)O)cc2)cc1 [Example 5-81, 4-(N-benzyl-N-(4-methoxyphenethyl)sulfamoyl)benzoic acid] | 20 to 40% | 20 to 40% | +++ (60% to 80% inhibition = +++) | ++ (40% to 60% inhibition = ++) | 60 to 80% | 20 to 40% | – | > 80% | 40 to 60% | + (20% to 40% inhibition = +) | +++ (60% to 80% inhibition = +++) | – | 20 to 40% | + (20% to 40% inhibition = +) | 20 to 40% | inhibition at 25 µM (hT2R7): 20 to 40%
COc1ccc(OC)c(/C=C2\SC(=S)N(CCC(=O)O)C2=O)c1 [Example 6-1, (Z)-3-(5-(2,5-dimethoxybenzylidene)-4-oxo-2-thioxothiazolidin-3-yl)propanoic acid] | – | – | – | – | – | – | – | – | – | – | – | – | – | – | – | IC50 (hT2R14 [1]): 2.75 µM; inhibition at 25 µM (hT2R16; receptor activated to EC80 with agonist, read-out: inhibition of bitter receptor 16): 20 to 40%; inhibition of bitter receptor 65 (hT2R65; [11]): + (20% to 40% inhibition = +); inhibition at 25 µM (hT2R3; receptor activated to EC80 with agonist, read-out: inhibition of bitter receptor 3): 20 to 40%; inhibition of bitter receptor 55 (hT2R55; [11]): + (20% to 40% inhibition = +); inhibition of bitter receptor 63 (hT2R63; [11]): + (20% to 40% inhibition = +); inhibition of bitter receptor 44 (hT2R44; [11]): ++ (40% to 60% inhibition = ++); inhibition at 25 µM (hT2R61; receptor activated to EC80 with agonist, read-out: inhibition of bitter receptor 61): 40 to 60%; inhibition at 25 µM (hT2R10; HEK293, read-out: inhibition of bitter receptor 10, compound at 25 μM, receptor activated to EC80 with agonist): > 80%; inhibition at 25 µM (hT2R71; receptor activated to EC80 with agonist, read-out: inhibition of bitter receptor 71): 20 to 40%; inhibition at 25 µM (hT2R75; HEK293, read-out: inhibition of bitter receptor 75, compound at 25 μM, receptor activated to EC80 with agonist): 20 to 40%; inhibition at 25 µM (hT2R14 [2]; receptor activated to EC80 with agonist, read-out: inhibition of bitter receptor 14): > 80%; inhibition at 25 µM (hT2R64; receptor activated to EC80 with agonist, read-out: inhibition of bitter receptor 64): 60 to 80%
